# Assay results from patent US20250041459A1, “Polyethylene Glycol Modified Zwitterionic Fluorescent Probe and Application Thereof, and Preparation” (Beijing Sonophotonano Medical Technology Company Limited, priority 2022, published 2025).
# Tests used:
# [1] = Absorption and fluorescence spectra of probes (optical properties); format: physicochemical; settings: for Fluorescence quantum yield: ICG in DMSO as standard
# [2] = tested on: 4T1 mouse breast cancer lung metastasis; settings: 2 nmol intravenous, 4 h
# Excerpt: (§1) This test example studied the imaging manifestations of PEG-Cy7-RP-RGD in different tumor models. A U87 human glioma mouse in-situ model, an SKOV3 human ovarian cancer in-situ model, a 4T1 mouse breast cancer lung metastasis model and an MB-49 human bladder cancer lung metastasis model were respectively set up.
# (§2) A 4T1 mouse breast cancer lung metastasis model and an MB-49 mouse bladder cancer lung metastasis model were respectively set up in FIG. 11.
# [3] = tested on: MB-49 human bladder cancer lung metastasis; settings: 2 nmol intravenous, 4 h
# Excerpt: as §1, §2
# [4] = tested on: SKOV3 human ovarian cancer; settings: 2 nmol intravenous, 4 h
# Excerpt: as §1
# A […] human ovarian cancer mouse in-situ tumor model was set up in FIG. 10.
# U87 human glioma = settings: 2 nmol intravenous, 4 h
# Excerpt: as §1
# [5] = tested on: MB-49 human bladder cancer cells; assay: Fluorescence imaging in mouse subcutaneous tumor model of MB-49 bladder cancer cells; format: in vivo, Balb/c nude mouse
# Method: A mouse subcutaneous tumor model of human bladder cancer cells was set up by injecting MB-49 human bladder cancer cells in Balb/c nude mouse legs. After the tumor grew to a proper size, four fluorescent probes were respectively intravenously injected (2 nmol of probe was injected for each mouse), and then fluorescence imaging was performed on mice at different time points after injection.
# tumors = assay: The above tests repeated on probes of examples 2-5 (targeted fluorescence imaging of tumors); settings: in vivo
# Excerpt: (§3) The inventors conducted the above test to the fluorescent probes prepared in examples 2-5.
# PSMA = biological target: T1, PSMA (Homo sapiens, UniProt Q04609); assay: PSMA-targeted prostate cancer fluorescence imaging; settings: in vivo
# T1 construct: highly expressed PSMA in prostate cancer; endogenous in cells
# Excerpt: as §3
# T1 sequence (Q04609 whole entry, species assumed): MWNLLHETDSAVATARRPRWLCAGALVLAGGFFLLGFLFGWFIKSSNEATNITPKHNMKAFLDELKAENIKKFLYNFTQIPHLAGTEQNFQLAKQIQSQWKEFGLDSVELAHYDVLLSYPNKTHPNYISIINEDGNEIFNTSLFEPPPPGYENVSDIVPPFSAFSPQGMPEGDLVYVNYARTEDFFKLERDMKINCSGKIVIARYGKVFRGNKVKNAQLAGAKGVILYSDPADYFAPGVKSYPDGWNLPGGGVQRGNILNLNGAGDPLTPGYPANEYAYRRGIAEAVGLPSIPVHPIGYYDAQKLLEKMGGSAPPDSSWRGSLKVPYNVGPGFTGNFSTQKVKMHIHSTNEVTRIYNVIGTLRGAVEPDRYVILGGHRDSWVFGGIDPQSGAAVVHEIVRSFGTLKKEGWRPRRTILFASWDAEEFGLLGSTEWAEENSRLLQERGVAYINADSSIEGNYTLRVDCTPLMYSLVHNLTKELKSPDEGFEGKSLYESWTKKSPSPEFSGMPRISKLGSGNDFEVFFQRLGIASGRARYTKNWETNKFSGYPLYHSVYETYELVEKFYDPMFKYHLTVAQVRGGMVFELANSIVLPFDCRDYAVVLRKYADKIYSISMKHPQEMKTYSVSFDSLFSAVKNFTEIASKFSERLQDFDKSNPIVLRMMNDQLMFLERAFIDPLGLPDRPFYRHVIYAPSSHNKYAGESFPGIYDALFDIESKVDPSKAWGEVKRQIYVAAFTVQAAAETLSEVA
structure (smiles),measurement,setting,value
COCCOCCOCCN1/C(=C/C=C2\CCCC(/C=C/C3=[N+](CCOCCOCCOC)c4ccc(S(=O)(=O)O)cc4C3(C)C)=C2Oc2ccc(CCC(=O)O)cc2)C(C)(C)c2cc(S(=O)(=O)[O-])ccc21 [PEG-Cy7-COOH],Fluorescent brightness compared with PEG-Cy7-Cl,[1]; PBS,doubled
same,Increase of fluorescence quantum yield compared with PEG-Cy7-Cl,[1]; PBS,3.7%
same,Absorption peak,[1]; PBS buffer (pH = 7.4),772 nm
same,Emission peak,[1]; PBS buffer (pH = 7.4),794 nm
same,Luminance (molar extinction coefficient × fluorescence quantum yield),[1]; PBS buffer (pH = 7.4),19800
same,Molar extinction coefficient,[1]; PBS buffer (pH = 7.4),228000 M⁻¹ cm⁻¹
same,Stokes shift,[1]; PBS buffer (pH = 7.4),22 nm
same,Fluorescence quantum yield,[1]; PBS buffer (pH = 7.4),8.7%
COCCOCCOCCN1/C(=C/C=C2\CCCC(/C=C/C3=[N+](CCOCCOCCOC)c4ccc(S(=O)(=O)O)cc4C3(C)C)=C2Oc2ccc(CCC(=O)N[C@@H](CCCNC(=N)N)C(=O)NCCOCCOCCOCCOCCC(=O)NCCCCC3NC(=O)[C@@H](Cc4ccc(O)cc4)NC(=O)[C@H](CC(=O)O)NC(=O)CNC(=O)[C@H](CCCNC(=N)N)NC3=O)cc2)C(C)(C)c2cc(S(=O)(=O)[O-])ccc21 (stereo partly drawn) [PEG-Cy7-RP-RGD],Fluorescence signal at tumor site,[2],strong fluorescence signal
same,Signal-to-noise ratio of small lung metastasis lesion,[2],about 4
same,Fluorescence signal at tumor site,[3],strong fluorescence signal
same,Signal-to-noise ratio of small lung metastasis lesion,[3],about 4
same,Fluorescence signal at tumor site,[4],strong fluorescence signal
same,Signal-to-noise ratio at ovarian tumor site,[4],about 4.0
same,Fluorescence signal at tumor site,U87 human glioma,strong fluorescence signal
same,Signal-to-noise ratio at tumor site,U87 human glioma; head skin cut,up to 6.3
same,Absorption peak,[1]; 100% Fetal bovine serum,777 nm
same,Emission peak,[1]; 100% Fetal bovine serum,795 nm
same,Luminance (molar extinction coefficient × fluorescence quantum yield),[1]; 100% Fetal bovine serum,20700
same,Molar extinction coefficient,[1]; 100% Fetal bovine serum,184000 M⁻¹ cm⁻¹
same,Stokes shift,[1]; 100% Fetal bovine serum,18 nm
same,Fluorescence quantum yield,[1]; 100% Fetal bovine serum,11.2%
same,Change of fluorescence property in 100% fetal bovine serum versus PBS,[1]; 100% fetal bovine serum vs PBS,did not obviously change
same,Absorption peak,[1]; PBS buffer (pH = 7.4),776 nm
same,Emission peak,[1]; PBS buffer (pH = 7.4),794 nm
same,Luminance (molar extinction coefficient × fluorescence quantum yield),[1]; PBS buffer (pH = 7.4),19300
same,Molar extinction coefficient,[1]; PBS buffer (pH = 7.4),174000 M⁻¹ cm⁻¹
same,Stokes shift,[1]; PBS buffer (pH = 7.4),18 nm
same,Fluorescence quantum yield,[1]; PBS buffer (pH = 7.4),11.1%
same,TBR (tumor signal-to-noise ratio) relative to the other three probes,"[5]; 24 h after intravenous injection, 2 nmol per mouse",twice or more
same,Tissue background (non-specific) signal in normal tissue,[5]; in vivo imaging,ultra-low
same,"Tumor signal-to-noise ratio (TBR), compared with the other probes","[5]; intravenous, 2 nmol per mouse",obviously improved
COCCOCCOCCN1/C(=C/C=C2\CCCC(/C=C/c3[se]c4cc(S(=O)(=O)O)ccc4[n+]3CCOCCOCCOC)=C2c2ccc(CCC(=O)N[C@@H](CCNC(=N)N)C(=O)NCCOCCOCCOCCOCCC(=O)NCCCCC3NC(=O)[C@@H](Cc4ccc(O)cc4)NC(=O)[C@H](CC(=O)O)NC(=O)CNC(=O)[C@H](CCCNC(=N)N)NC3=O)cc2)[Se]c2cc(S(=O)(=O)O)ccc21 (stereo partly drawn) [example 3],Fluorescence property compared to example 1,[1],comparable to that in example 1
same,Usability for targeted fluorescence imaging of tumors,tumors,can be used for targeted fluorescence imaging of tumors
COCCOCCOCCN1/C(=C/C=C2\CCCC(/C=C/C3=[N+](CCOCCOCCOC)c4ccc(S(=O)(=O)O)cc4C3(C)C)=C2Oc2ccc(CCC(=O)N[C@@H](CCCNC(=N)N)C(=O)NCCOCCOCCOCCOCCC(=O)NCCCC[C@H](NC(=O)NC(CCC(=O)O)C(=O)O)C(=O)O)cc2)C(C)(C)c2cc(S(=O)(=O)[O-])ccc21 (stereo partly drawn) [example 5],Binding to PSMA in prostate cancer,PSMA,can bind to highly expressed PSMA in prostate cancer
same,Prostate cancer-specific fluorescence imaging,PSMA,achieving prostate cancer-specific fluorescence imaging
